Reference: patent US20070117861A1, “Treatment or prevention of cardiovascular and respiratory disorders with novel substituted cyclic-amp specific phosphodiesterase inhibitors” (University of South Carolina, priority 2003, published 2007)
One block for each molecule: values may come before it.

Key:
[1] = tested on: high K+ contracted porcine kidney main artery; experiment: tension assay, high K+ contracted porcine kidney vessel rings; conditions: tension assay trace, FIG. 5
Procedure: The trachea, main bronchi and vessel rings (2-3 mm in width) of Sprague-Dawley rats, Harley Guinea Pigs and porchine were used to carry out the tension assay. The tissue rings were bathed in 3.5 ml or 30 ml tissue chamber and aired with 95% O2/5% CO2 at 37° C. The tension was measured using a tension transducer linked to a PowerLab system (ADInstruments, USA). The basal tension was set to 0.7-1.0 g step by step with a 0.1-0.2 g increment. After the base tension reached steady-state in control K-H solution, the rings were contracted for 5-10 minutes by a 70 mM high K^+ K-H solution and relaxed by switching back to normal K-H solution. The alternation between 70 mM K^+ K-H and normal K-H was repeated two more times to equilibrate the tissue before the experiment.

solubility = assay type: physicochemical
[2] = onset of therapeutic effect after administration; assay type: in vivo
[3] = blood pressure and heart rate in anesthetized rats after oral gavage; assay type: in vivo; conditions: anesthetized female rat; for Mean Blood Pressure: saline control 186; for Heart Rate: saline control 364
Procedure: This example illustrates the effect that MS23 has on blood pressure reduction through an in vivo experiment. Specifically, this example illustrates the effect of an intravenous bolus injection of MS23 on blood pressure. Female Sprague-Dawley rats weighing 200-225 g were anesthetized with pentobarbital (30 mg/kg body weight (bw), i.p.). The animals were positioned supinely on a heat plate that was controlled by an automatic temperature controller system (TC-324B, Warner Instrument Corp.) to maintain its body temperature constant (36° ±0.5° C.) during the experiment. The trachea, right carotid artery, and left femoral vein were exposed. The trachea was cannulated and the animal was breathed with air through a respirator at a rate of 65-70/min and an inspiration pressure of approximately 10 cm H2O. PE catheters were implanted into the carotid artery and femoral vein, respectively. The animal was heparinized by i.v. injection of approximately 300 units of heparin dissolved in 0.3 ml of 0.9% saline. Arterial pressure was recorded from the carotid artery catheter connected to a physiological pressure transducer (SP 844, Capto Company, Norway) that was coupled to a bridge amplifier (PowerLab, ADInstruments). The data was digitized through a 16 SP interface and acquire on-line with Chart 4.0 software (PowerLab, ADInstruments) and stored to a personal computer.
MS23 was administered to two female rats via oral gavage at a dose of 26 and 80 mg/kg.bw, respectively. The agent was dissolved in 0.9% saline in a volume of 0.5 ml. The same volume of saline alone was administered to two control animals. After 15 minutes, the animal was anesthetized with pentobarbital (30 mg/kg.bw, i.p.) and same surgery was performed except that the femoral vein was not exposed and there was no i.v. administration of the test agent. The carotid blood pressure and heart rate were monitored and recorded for 60 minutes using the same method described above. The initial recording was made within 45 to 65 minutes after performing oral gavage. The results are reported in the following Table 1 (the MBP and HR were measured within 30 minutes after the surgery).

[4] = blood pressure in anesthetized dogs after intravenous bolus injection; assay type: in vivo; conditions: for Left Ventricular End Diastolic Pressure: control 8.7; for Blood Pressure Min: control 46.6; for Blood Pressure Mean: control 67.2; for Left Ventricular Systolic Pressure: control 78.5; for Blood Pressure Max: control 99.8; for Heart Rate: control 119.8, in bpm (unit assumed)
Procedure: This example illustrates the effect that MS23 has on blood pressure reduction through an in vivo experiment in dogs. An intravenous bolus injection of MS23 was administered to anesthetized dogs at a dose of 0.25 mg/kg.bw. […] Higher doses of MS23 produced a greater decrease in blood pressure without affecting heart rate and left ventricular end diastolic pressure.

[5] = tested on: guinea pig ventricular myocytes; experiment: action potentials, nystatin-perforated whole-cell patch-clamp, ventricular myocytes; assay type: cell-based
Procedure: (§1) The effects of a novel synthesized cAMP specific phosphodiesterase inhibitor MS23 on action potential parameters were examined and compared with those of milrinone and rolipram in isolated guinea-pig myocytes. Action potentials (AP) were recorded under nystatin-perforated whole-cell patch-clamp mode at a temperature of 35±0.5° C. […] In comparison, rolipram (30 μM) shortened APD90 from 318.3±8.9 to 274.6±9.8 msec (P<0.05, n=3) in ventricular cells. […] In contrast, milrinone (10 μM) elongated ventricular APD90 from 287.9±10.3 msec to 327.8±17.4 msec (P<0.05, n=4) and produced a significant delay of phase 1 and plateau phase, but acceleration of phase 3 repolarization (APD90 shortened from 153.9±12.1 to 135.5±12.3 msec, P<0.05, n=4) in atrial cells.
(§2) Single myocytes were isolated by enzymatic digestion of guinea pig hearts. The animal was anesthetized by I.P. injection of pentobarbital sodium (50 mg/kg) and the heart was excised and retrogradely perfused with oxygenated Tyrode solution containing (in […]): 140 NaCl, 5.4 KCl, 1.5 MgCl2, 1.8 CaCl2, 0.33 NaH2PO4, 5.5 Glucose, 19 Hepes (pH 7.4 with NaOH at 36.5° C.). The enzymatic digestion was carried out with Ca^2+-free Tyrode solution by adding 0.4 mg/ml of collagenase type II (306 units/mg) and 1.6 mg/ml Bovine Serum Albumin V.
(§3) Transmembrane potentials were recorded under nystatin-perforted whole-cell current-clamp mode at 36.5° C. when the cells were bathed in Tyrode solution. The finished pipette had resistance of 4-7 MΩ when filled with a perforate solution containing (in mM): 140 KCl, 2 MCl2, 0.5 CaCl2, 10 Glucose, 10 Hepes (pH 7.2 with KOH), and 8.64 nM nystatin. The correction of junction potential was carried out off-line. The data acquisition was performed with an Axonpatch-200B amplifier/Digidata 1322A/Clampex 8.2 system (Axon Instrument, Inc., USA). Action potential was evoked by consecutive 10 msec rectangular current pulses at an interval of 2 seconds. APD was measured at 90% of repolarization (APD^90). The cell was held at a −40 mV membrane potential to inactivate the sodium channels. L-type calcium current was elicited by a step pulse from −40 mV to 0 mV with a duration of 300 msec.

[6] = tested on: guinea pig atrial myocytes; experiment: action potentials, nystatin-perforated whole-cell patch-clamp, atrial myocytes; assay type: cell-based
Procedure: as §1, §2, §3

PDE5 = PDE5 (Homo sapiens, UniProt O76074); conditions: ratio of cited IC50 values
Procedure: PDE inhibition is then determined by the presence or absence of substrate degradation products. […] The relative ability of an inhibitory compound to slow or prevent the degradation of tritiated cyclic nucleotides is one test that is indicative of how well the compound in question selects one or more of each isoform to inhibit.

PDE-4 = tested on: T1, PDE-4; conditions: reported in Hatzelmann et al. 2001; read-out: IC50 for roflumilast activity on PDE-4; cited from earlier work
T1 construct: other: reported in Hatzelmann et al. 2001

PDE1 = conditions: reported in Hatzelmann et al. 2001; read-out: IC50 for roflumilast activity on PDE1; cited from earlier work

SMILES: CCN(CC)CC(=O)Nc1c(C)cccc1C [Lidocaine]
- effect on tension of high K+ contracted porcine kidney main artery [1]: did not relax

- solubility in physiological saline (solubility): soluble
- prolongation of ventricular APD ([5]; from 1 to 100 μM): did not prolong
- prolongation of atrial APD ([6]; from 1 to 100 μM): did not prolong
SMILES: CCCN(CC)C(C)C(=O)Nc1[nH]c(CCSC)c(C)c1C(N)=O (stereo not shown) [MS23]
- onset of therapeutic effect (response occurs) ([2]; after intraperitoneal administration): < 3 min
- onset of therapeutic effect (response occurs) ([2]; after oral gavage): ≤ 30 min
- Mean Blood Pressure ([3]; oral gavage 26 mg/kg·bw): 156 mm Hg
- Heart Rate ([3]; oral gavage 26 mg/kg·bw): 384 beat/min
- Mean Blood Pressure ([3]; oral gavage 80 mg/kg·bw): 126 mm Hg
- Heart Rate ([3]; oral gavage 80 mg/kg·bw): 300 beat/min
- Left Ventricular End Diastolic Pressure ([4]; Bolus 1 mg/kg·bw): 9.0
- Blood Pressure Min ([4]; Bolus 1 mg/kg·bw): 39.8
- Blood Pressure Mean ([4]; Bolus 1 mg/kg·bw): 58.4
- Left Ventricular Systolic Pressure ([4]; Bolus 1 mg/kg·bw): 71.8
- Blood Pressure Max ([4]; Bolus 1 mg/kg·bw): 90.5 mmHg
- Heart Rate ([4]; Bolus 1 mg/kg·bw): 118.2
- Left Ventricular End Diastolic Pressure ([4]; Bolus 2 mg/kg·bw): 9.2
- Blood Pressure Min ([4]; Bolus 2 mg/kg·bw): 33.7
- Blood Pressure Mean ([4]; Bolus 2 mg/kg·bw): 48.0
- Left Ventricular Systolic Pressure ([4]; Bolus 2 mg/kg·bw): 63.1
- Blood Pressure Max ([4]; Bolus 2 mg/kg·bw): 76.8 mmHg
- Heart Rate ([4]; Bolus 2 mg/kg·bw): 109.7
- reduction in blood pressure ([4]; intravenous bolus 0.25 mg/kg.bw): 4 mmHg
- APD90 (action potential duration at 90% of repolarization) ([5]; ventricular cells, 30 μM, before drug 304.9±24.0 msec, P<0.05, n=8): 254.9 ± 28.4 ms
- effect on APD ([6]; atrial cells, 30 μM): no effect

SMILES: NC[C@H](O)c1ccc(O)c(O)c1 [Norepinephrine]
- effect on tension of high K+ contracted porcine kidney main artery [1]: contracted

SMILES: Cc1[nH]c(=O)c(C#N)cc1-c1ccncc1 [milrinone]
- effect on APD90 ([5]; ventricular cells, 10 μM, after treatment with either rolipram or MS23): markedly shortened
- APD90 ([5]; ventricular cells, 10 μM, before drug 287.9±10.3 msec, P<0.05, n=4): 327.8 ± 17.4 ms
- APD90 ([6]; atrial cells, 10 μM, before drug 153.9±12.1 msec, P<0.05, n=4): 135.5 ± 12.3 ms

SMILES: O=C(Nc1c(Cl)cncc1Cl)c1ccc(OC(F)F)c(OCC2CC2)c1 [roflumilast]
- selectivity for PDE-4 as compared with PDE5 (PDE5 IC50/PDE-4 IC50) (PDE5): at least 10,000
- IC50 (PDE-4): 0.8 nM
- IC50 (PDE1): > 10000 nM

SMILES: COc1ccc(C2CNC(=O)C2)cc1OC1CCCC1 (stereo not shown) [rolipram, reference compound]
- APD90 ([5]; ventricular cells, 30 μM, before drug 318.3±8.9 msec, P<0.05, n=3): 274.6 ± 9.8 ms
- effect on action potential phases ([6]; atrial cells, 30 μM): small delay of phase 1 and plateau phase, but acceleration of phase 3 repolarization
